We go through 1 molecule from PMC9683399 (Journal of medicinal chemistry, 2022).

This assay deals with BRD4 D2 (Homo sapiens, UniProt O60885).

Take `Cc1sc2c(c1C)C(c1ccc(Cl)cc1)=N[C@@H](CC(=O)OC(C)(C)C)c1nnc(C)n1-2` [(+)-JQ1]: the “binding to BRD4 D2 by ITC” value is listed as “potent binding”.
